Laboratory results taken from US10555536B2, “Crop fortification, nutrition and crop protection composition” (priority 2017, dated 2020).

System: Groundnut
Assay: Field trial on groundnut, protein content of seeds
Design: species or system Groundnut GG-2 variety
Settings: in vivo
Text: Field Trial Study of Treatments with Spirulina Compositions on Groundnut by Soil Drenching. Trials were laid in Ishvarpura (Idar) village, Dist.-Sabarkantha, Gujarat, India, to evaluate various compositions for treatment of Groundnut GG-2 variety. The plot size was 3828 m2. All the recommended agronomic practices were followed. All the treatments were applied by Soil drenching. Also, no urea or any other chemical fertilizer was applied in the trial and in the previous crop. Thus, the parts where compositions of the present invention were applied were free of chemical nutrient for over a year.

## NC(N)=O [Urea]
  Protein content of Groundnut Seeds %: 48.884%
